Test results as given in ChEMBL document CHEMBL3758126, “Synthesis of 4-sulfamoylphenyl-benzylamine derivatives with inhibitory activity against human carbonic anhydrase isoforms I, II, IX and XII” (Bioorg Med Chem, 2016).

Assays:
Carbonic anhydrase 9 = Carbonic anhydrase 9 (Homo sapiens, UniProt Q16790)
Description: Inhibition of human recombinant carbonic anhydrase 9 preincubated for 15 mins by stopped-flow CO2 hydrase assay

Carbonic anhydrase 1 = Carbonic anhydrase 1 (Homo sapiens, UniProt P00915)
Description: Inhibition of human recombinant carbonic anhydrase 1 preincubated for 15 mins by stopped-flow CO2 hydrase assay

Carbonic anhydrase 12 = Carbonic anhydrase 12 (Homo sapiens, UniProt O43570)
Chain of Carbonic anhydrase 12 (O43570 whole entry): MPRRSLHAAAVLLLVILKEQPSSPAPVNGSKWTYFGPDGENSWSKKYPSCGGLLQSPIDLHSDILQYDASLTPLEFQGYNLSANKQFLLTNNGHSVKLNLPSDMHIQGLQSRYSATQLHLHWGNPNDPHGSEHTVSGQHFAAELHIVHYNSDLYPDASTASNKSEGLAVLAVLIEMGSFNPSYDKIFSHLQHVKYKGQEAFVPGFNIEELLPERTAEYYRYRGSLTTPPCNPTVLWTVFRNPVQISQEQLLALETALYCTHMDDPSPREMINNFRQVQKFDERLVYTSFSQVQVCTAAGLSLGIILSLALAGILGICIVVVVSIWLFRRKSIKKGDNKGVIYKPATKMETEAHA
Description: Inhibition of human recombinant carbonic anhydrase 12 preincubated for 15 mins by stopped-flow CO2 hydrase assay

Chain of Carbonic anhydrase 1 (P00915 whole entry): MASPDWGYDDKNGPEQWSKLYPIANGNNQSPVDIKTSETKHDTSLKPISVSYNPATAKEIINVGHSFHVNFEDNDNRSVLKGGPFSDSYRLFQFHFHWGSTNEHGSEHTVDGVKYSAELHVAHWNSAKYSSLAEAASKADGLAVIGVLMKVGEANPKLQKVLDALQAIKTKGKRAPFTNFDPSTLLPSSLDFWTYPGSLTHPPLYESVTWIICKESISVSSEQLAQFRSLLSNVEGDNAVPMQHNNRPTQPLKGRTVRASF

SMILES | Ki (Carbonic anhydrase 9) [nM] | Ki (Carbonic anhydrase 1) [nM] | Ki (Carbonic anhydrase 12) [nM]
NS(=O)(=O)c1ccc(NCc2cc(Br)cc(Br)c2O)cc1 | 2.3 | – | –
NS(=O)(=O)c1ccc(/N=C/c2cc(Cl)cc(Cl)c2O)cc1 | 35.6 | – | –
Cc1ccc(CNc2ccc(S(N)(=O)=O)cc2)cc1 | 2.1 | – | –
CN(C)c1ccc(CNc2ccc(S(N)(=O)=O)cc2)cc1 | 2.4 | – | > 50000
NS(=O)(=O)c1ccc(/N=C/c2ccccc2)cc1 | 454 | > 50000 | 11.1
NS(=O)(=O)c1ccc(NCc2cc(Cl)ccc2O)cc1 | 2.4 | – | –
NS(=O)(=O)c1ccc(NCc2ccccc2O)cc1 | 2.9 | – | –
NS(=O)(=O)c1ccc(/N=C/c2cc(Br)ccc2O)cc1 | 257 | – | –
NS(=O)(=O)c1ccc(/N=C/c2ccccc2O)cc1 | 952 | – | –
NS(=O)(=O)c1ccc(NCc2ccc(OCc3ccccc3)cc2)cc1 | 2.5 | – | –
NS(=O)(=O)c1ccc(/N=C/c2cc(Br)cc(Br)c2O)cc1 | 360 | > 50000 | –
Cc1cccc(CNc2ccc(S(N)(=O)=O)cc2)c1O | 2.3 | – | –
COc1ccc(CNc2ccc(S(N)(=O)=O)cc2)cc1 | 2.2 | 21.9 | 427

More lines, now with the values ahead:

Ki (Carbonic anhydrase 9) [nM] | Ki (Carbonic anhydrase 1) [nM] | Ki (Carbonic anhydrase 12) [nM] | SMILES
883 | > 50000 | 11.2 | COc1ccc(/C=N/c2ccc(S(N)(=O)=O)cc2)cc1
465 | – | – | Cc1cccc(/C=N/c2ccc(S(N)(=O)=O)cc2)c1O
47.9 | > 50000 | – | NS(=O)(=O)c1ccc(/N=C/c2cc(Cl)ccc2O)cc1
– | > 50000 | 9.9 | Cc1ccc(/C=N/c2ccc(S(N)(=O)=O)cc2)cc1
41.5 | 421 | 8.8 | CN(C)c1ccc(/C=N/c2ccc(S(N)(=O)=O)cc2)cc1
2.2 | – | – | NS(=O)(=O)c1ccc(NCc2cc(Cl)cc(Cl)c2O)cc1
36 | > 50000 | – | NS(=O)(=O)c1ccc(/N=C/c2ccc(OCc3ccccc3)cc2)cc1
